Measurements as given in PMC4747383, “Design of a peptidic inhibitor that targets the dimer interface of a prototypic galectin” (Oncotarget, 2015).
Each block holds one substance with its values, some of them ahead of it.

Assays:
T cell = test system: T cell; design: method as in PMID 25277199, PMID 24134186; conditions: ref [38], [50]; cited from earlier work
recombinant hGal-7 [1] = test: Disruption of hGal-7 homodimers, native gel electrophoresis/Western blot; format: biochemical, human; conditions: for disruption of hGal-7 homodimers by biotinylated peptide: 0.5 μM hGal-7, 20 mM potassium phosphate pH 7.1, 60 min at 4°C, low SDS-PAGE Western blot, representative of two independent experiments
Excerpt: To measure the ability of the peptides to disrupt the formation of hGal-7 dimers, we used mild denaturing native gel electrophoresis, a commonly used approach to visualize monomer-dimer equilibrium (Fig. 1A and Supplementary Fig. S1). […] This specificity at disrupting hGal-7 dimer formation is provided by distinct three-dimensional arrangements between otherwise very similar galectin homologues. Indeed, while all monomeric galectins reveal identical topologies, dimer formation in hGal-7 proceeds through a “back-to-back” topology of the monomers while other galectins, including hGal-1 and hGal-2, adopt a “side-by-side” structural arrangement (Fig. 1B). This structural organization provides additional means to specifically target and disrupt galectin function.
Incubation of the recombinant B. hGal-1 and C. hGal-2 with hGal-7(129–135) was performed in the same potassium phosphate buffer. The effect of hGal-7(129–135) on the monomeric and dimeric forms of hGal-7/hGal-1/hGal-2 was assessed by Western blotting in native conditions with respective antibodies. The hGal-1/hGal-2 films were overexposed. PACAP28–38 was the control peptide used in order to ensure the specificity of hGal-7(129–135). Recombinant hGal-7 (0.5 μM) was also incubated with increasing concentrations of hGal-7(129–135) in 0.1 mM D. lactose or E. LacNac solutions. Results are representative of three independent experiments.
Human Gal-7 cDNA was cloned into pET-22b(+) using NdeI and HindIII restriction enzymes. Human pET-Gal-1 vector was generously donated by Dr. S. Sato (McGill University, QC, Canada). The proteins were produced in E. coli BL21 (DE3) cells at 37°C. Isopropyl β-D-1-thiogalactopyranoside (IPTG) (1 mM) was added to the bacterial culture at OD600nm = 0.6–0.7 and then incubated for 4 h at 37°C to allow protein production. Bacterial pellets were resuspended in lysis buffer (0.7 mg/mL lysozyme, 10 mM Tris pH 8, 100 mM NaCl, 1 mM EDTA, 1 mM DTT and a protease inhibitor cocktail) and then incubated for 1 h at 37°C prior to centrifugation for 30 min at 15,000 × g (4°C). The supernatant was then filtered with 500 mL bottle top filter ([…]) (Corning, New York, NY, USA) and then ran through a lactose-agarose column (Sigma, St. Louis, MO, USA). The protein was eluted in 1 mL fractions with 150 mM lactose solution. Purified fractions were analyzed by SDS-PAGE. The hGal-7 was then concentrated and purified using Centrifugal filter units (Amicon Ultra-15, 10K) (EMD, Millipore, Etobicoke, ON) in 20 mM potassium phosphate at pH 7.1. All subsequent experiments with the recombinant proteins were performed in the same buffer solution unless mentioned otherwise. Brilliant Coomassie blue was purchased from BioRad (Bio-Rad Laboratories, Mississauga, ON, Canada). The recombinant protein hGal-2 was purchased from MyBiosource (San Diego, CA, USA). […]
gaI-7 (0.5 μM) was incubated with increasing concentrations of biotin-labeled hGaI-7129–135 in 20 mM potassium phosphate buffer (pH 7.1) for 60 min at 4°C beforeWestern blot analysis in low SDS-PAGE using an anti-gaI-7 antibody. B. Similar experiments were carried out using recombinant human B. gaI-1 and C. gaI-2. Results are representative of two independent experiments.
(also on this page, place not known: www.impactjournals.com/oncotarget/ Oncotarget, Materials 2015 Supplementary hGaI-7 129–135.)

recombinant hGal-7 [2] = test: Solid phase fluorescent binding assay on hGal-7; design: species or system human; conditions: hGal-7 10 μg/ml coated, unlabeled peptide (1 mM) 60 min, then biotin-labeled peptide 120 min, room temperature, Streptavidin R-phycoerythrin fluorescence, three independent experiments
Excerpt: Results are representative of three independent experiments. Error bars represent standard deviation.

hGal-2 = test: Binding to hGal-2; design: species or system human; conditions: biotinylated peptide; Supplementary Fig. S2 quoted
recombinant hGal-1 = conditions: hGal-1 10 μg/ml coated; unlabeled peptide (1 mM) 60 min, then biotin-labeled peptide 120 min, room temperature; Streptavidin R-phycoerythrin fluorescence; three independent experiments

Substance: Gal-7: human galectin-7
effects on T cell functions and survival (T cell): strong cytotoxic and inhibitory effects on T cell functions and survival

Substance: H-IRPGTVLRIRGLV-NH2 [hGal-7(13–25), peptide corresponding to hGal-7 segment between residues 13–25]
disruption of hGal-7 homodimers (in words) (recombinant hGal-7 [1]; 0.5 μM recombinant hGal-7, 20 mM potassium phosphate pH 7.1, 1 h at 4°C, native PAGE, Western blot): less potent than hGal-7(129–135) to disrupt hGal-7 homodimers

binding to immobilized hGal-7 (recombinant hGal-7 [2]): could bind hGal-7
binding to immobilized hGal-7 (recombinant hGal-7 [2]; listed as biotin-labeled hGal-7(129–135)): dose-dependent interaction
binding to hGal-2 (hGal-2): not hGal-1 or hGal-2
binding to immobilized hGal-1 (recombinant hGal-1): not hGal-1 or hGal-2
Substance: biotinylated hGal-7(129–135): biotinylated version of hGal-7(129–135), Biotin-NHS coupled via Ahx linker
disruption of hGal-7 homodimers by biotinylated peptide (recombinant hGal-7 [1]): still capable of specifically inhibiting the formation of hGal-7 homodimers
disruption of hGal-7 homodimers by biotinylated peptide (recombinant hGal-7 [1]; listed as biotin-labeled hGaI-7129–135): Disruption of hGaI-7 dimer
